Reference: PubChem BioAssay (NCI)
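Five concentrations, 48 hours, 96-well plates. Abbreviation: GI50, concentration required for 50% inhibition of growth. The concentration for full growth arrest is given as TGI.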

Columns and labels:
Assay in all cases: DTP human tumour cell line panel, 48 h
[1] = tested on: 786-0 renal
[2] = tested on: A498 renal
[3] = tested on: A549 NSCLC
[4] = tested on: ACHN renal
[5] = tested on: BT-549 breast
[6] = tested on: CAKI-1 renal
[7] = tested on: CCRF-CEM leukemia
[8] = tested on: COLO 205 colon
[9] = tested on: DU-145 prostate
[10] = tested on: EKVX NSCLC
[11] = tested on: HCC-2998 colon
[12] = tested on: HCT-116 colon
[13] = tested on: HCT-15 colon
[14] = tested on: HL-60(TB) leukemia
[15] = tested on: HOP-62 NSCLC
[16] = tested on: HOP-92 NSCLC
[17] = tested on: HS 578T breast
[18] = tested on: HT29 colon
[19] = tested on: IGROV1 ovarian
[20] = tested on: K-562 leukemia
[21] = tested on: KM12 colon
[22] = tested on: LOX IMVI melanoma
[23] = tested on: M14 melanoma
[24] = tested on: MALME-3M melanoma
[25] = tested on: MCF7 breast
[26] = tested on: MDA-MB-231 breast
[27] = tested on: MDA-MB-435
[28] = tested on: MOLT-4 leukemia
[29] = tested on: NCI-H226 lung
[30] = tested on: NCI-H23 lung
[31] = tested on: NCI-H460 lung
[32] = tested on: NCI-H522 lung
[33] = tested on: NCI/ADR-RES ovarian
[34] = tested on: OVCAR-3 ovarian
[35] = tested on: OVCAR-4 ovarian
[36] = tested on: OVCAR-5 ovarian
[37] = tested on: OVCAR-8 ovarian
[38] = tested on: PC-3 prostate
[39] = tested on: RPMI-8226 leukemia
[40] = tested on: RXF 393 renal
[41] = tested on: SF-268 CNS
[42] = tested on: SF-295 CNS
[43] = tested on: SF-539 CNS
[44] = tested on: SK-MEL-2 melanoma
[45] = tested on: SK-MEL-28 melanoma
[46] = tested on: SK-MEL-5 melanoma
[47] = tested on: SK-OV-3 ovarian
[48] = tested on: SN12C renal
[49] = tested on: SNB-19 CNS
[50] = tested on: SNB-75 CNS
[51] = tested on: SR leukemia
[52] = tested on: SW-620 colon
[53] = tested on: T-47D breast
[54] = tested on: TK-10 renal
[55] = tested on: U251 CNS
[56] = tested on: UACC-257 melanoma
[57] = tested on: UACC-62 melanoma
[58] = tested on: UO-31 renal

SMILES: NS(=O)(=O)c1ccc(Nc2ncc(-c3ccccc3)o2)cc1
- GI50 [1]: > 25 µM
- TGI [1]: > 25 µM
- GI50 [2]: > 19.6 µM
- TGI [2]: > 25 µM
- GI50 [3]: > 25 µM
- TGI [3]: > 25 µM
- GI50 [4]: > 25 µM
- TGI [4]: > 25 µM
- GI50 [5]: > 25 µM
- TGI [5]: > 25 µM
- GI50 [6]: > 25 µM
- TGI [6]: > 25 µM
- GI50 [7]: > 25 µM
- TGI [7]: > 25 µM
- GI50 [8]: > 23.7 µM
- TGI [8]: > 25 µM
- GI50 [9]: > 25 µM
- TGI [9]: > 25 µM
- GI50 [10]: > 25 µM
- TGI [10]: > 25 µM
- GI50 [11]: > 25 µM
- TGI [11]: > 25 µM
- GI50 [12]: > 25 µM
- TGI [12]: > 25 µM
- GI50 [13]: > 25 µM
- TGI [13]: > 25 µM
- GI50 [14]: > 25 µM
- TGI [14]: > 25 µM
- GI50 [15]: > 25 µM
- TGI [15]: > 25 µM
- GI50 [16]: > 25 µM
- TGI [16]: > 25 µM
- GI50 [17]: 20.5 µM
- TGI [17]: > 25 µM
- GI50 [18]: > 25 µM
- TGI [18]: > 25 µM
- GI50 [19]: > 25 µM
- TGI [19]: > 25 µM
- GI50 [20]: > 25 µM
- TGI [20]: > 25 µM
- GI50 [21]: > 25 µM
- TGI [21]: > 25 µM
- GI50 [22]: > 25 µM
- TGI [22]: > 25 µM
- GI50 [23]: > 25 µM
- TGI [23]: > 25 µM
- GI50 [24]: > 25 µM
- TGI [24]: > 25 µM
- GI50 [25]: > 25 µM
- TGI [25]: > 25 µM
- GI50 [26]: > 25 µM
- TGI [26]: > 25 µM
- GI50 [27]: > 25 µM
- TGI [27]: > 25 µM
- GI50 [28]: > 25 µM
- TGI [28]: > 25 µM
- GI50 [29]: > 25 µM
- TGI [29]: > 25 µM
- GI50 [30]: > 25 µM
- TGI [30]: > 25 µM
- GI50 [31]: > 25 µM
- TGI [31]: > 25 µM
- GI50 [32]: > 25 µM
- TGI [32]: > 25 µM
- GI50 [33]: > 25 µM
- TGI [33]: > 25 µM
- GI50 [34]: > 25 µM
- TGI [34]: > 25 µM
- GI50 [35]: > 25 µM
- TGI [35]: > 25 µM
- GI50 [36]: > 25 µM
- TGI [36]: > 25 µM
- GI50 [37]: > 25 µM
- TGI [37]: > 25 µM
- GI50 [38]: > 25 µM
- TGI [38]: > 25 µM
- GI50 [39]: > 25 µM
- TGI [39]: > 25 µM
- GI50 [40]: > 25 µM
- TGI [40]: > 25 µM
- GI50 [41]: > 25 µM
- TGI [41]: > 25 µM
- GI50 [42]: > 25 µM
- TGI [42]: > 25 µM
- GI50 [43]: > 22.9 µM
- TGI [43]: > 25 µM
- GI50 [44]: > 25 µM
- TGI [44]: > 25 µM
- GI50 [45]: > 25 µM
- TGI [45]: > 25 µM
- GI50 [46]: > 25 µM
- TGI [46]: > 25 µM
- GI50 [47]: > 25 µM
- TGI [47]: > 25 µM
- GI50 [48]: > 25 µM
- TGI [48]: > 25 µM
- GI50 [49]: > 25 µM
- TGI [49]: > 25 µM
- GI50 [50]: > 9.68 µM
- TGI [50]: > 25 µM
- GI50 [51]: 9.69 µM
- TGI [51]: > 25 µM
- GI50 [52]: > 22.1 µM
- TGI [52]: > 25 µM
- GI50 [53]: > 25 µM
- TGI [53]: > 25 µM
- GI50 [54]: > 25 µM
- TGI [54]: > 25 µM
- GI50 [55]: > 25 µM
- TGI [55]: > 25 µM
- GI50 [56]: > 25 µM
- TGI [56]: > 25 µM
- GI50 [57]: > 25 µM
- TGI [57]: > 25 µM
- GI50 [58]: > 25 µM
- TGI [58]: > 25 µM
